23 compounds from patent US7786141B2 (Vertex Pharmaceuticals Incorporated, priority 2004, dated 2010) can be followed below.

The target in test [1] is T1, M4 muscarinic receptor (Homo sapiens, UniProt P08173).
T1 construct: expressed in transfected cells; host or cells: CHO (M4-CHO)
T1 sequence (P08173 1-479): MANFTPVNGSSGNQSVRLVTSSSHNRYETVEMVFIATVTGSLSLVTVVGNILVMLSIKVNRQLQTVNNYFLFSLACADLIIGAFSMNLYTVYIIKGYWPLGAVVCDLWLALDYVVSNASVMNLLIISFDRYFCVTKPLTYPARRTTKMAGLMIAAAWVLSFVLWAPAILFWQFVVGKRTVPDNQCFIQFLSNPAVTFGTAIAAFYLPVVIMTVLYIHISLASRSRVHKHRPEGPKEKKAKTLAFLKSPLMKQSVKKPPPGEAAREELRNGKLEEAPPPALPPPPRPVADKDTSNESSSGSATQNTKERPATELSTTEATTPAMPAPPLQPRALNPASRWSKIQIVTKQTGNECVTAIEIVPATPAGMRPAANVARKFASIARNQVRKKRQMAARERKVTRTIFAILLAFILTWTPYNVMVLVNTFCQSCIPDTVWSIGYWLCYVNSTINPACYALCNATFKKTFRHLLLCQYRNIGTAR
In words: Functional mobilization of intracellular calcium (FLIPR) in M4-CHO cells. It counts as cell-based. The note with it: M4 receptor, calcium mobilization; for Emax: read-out: M4 Efficacy. In a few lines:
(§1)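 CHO cells stably expressing human M1 or M4 receptor were loaded with Fluo-3 AM (or Calcium 3 dye) in Hepes-buffered saline, pH 7.4, with 1 mM probenecid, 0.5% final DMSO. Agonist mode: compound added directly; antagonist mode: 15 min preincubation before carbachol at EC80. FLIPR fluorescence recorded 60 sec.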
(In general: Calcium flux is commonly read through the fluorescence of an indicator in the cells.)

The target of test [2] is T2, M1 muscarinic receptor (Homo sapiens, UniProt P11229).
T2 construct: expressed in transfected cells; host or cells: CHO (M1-CHO)
T2 sequence (P11229 1-460): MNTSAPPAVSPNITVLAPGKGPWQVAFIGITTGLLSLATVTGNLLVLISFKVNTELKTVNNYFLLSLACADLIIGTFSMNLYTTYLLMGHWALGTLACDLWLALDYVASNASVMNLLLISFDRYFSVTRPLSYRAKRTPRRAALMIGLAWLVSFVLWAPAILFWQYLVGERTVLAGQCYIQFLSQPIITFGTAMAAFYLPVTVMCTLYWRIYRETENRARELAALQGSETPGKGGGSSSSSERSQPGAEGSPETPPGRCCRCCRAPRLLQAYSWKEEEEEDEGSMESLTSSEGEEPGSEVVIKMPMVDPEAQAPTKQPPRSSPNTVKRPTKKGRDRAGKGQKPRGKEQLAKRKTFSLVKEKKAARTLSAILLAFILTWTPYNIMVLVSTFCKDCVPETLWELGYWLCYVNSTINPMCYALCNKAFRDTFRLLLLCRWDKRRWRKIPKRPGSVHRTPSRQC
As to the kind of experiment: Functional mobilization of intracellular calcium (FLIPR) in M1-CHO cells. It counts as cell-based. The conditions noted are these: M1 receptor, calcium mobilization; for Emax: read-out: M1 Efficacy. In a few lines:
as §1

For the compound `COCCOC(=O)N1C2CCC1CC(N1CCC3(CCc4ccccc43)CC1)C2` (centres unmarked) [compound 95], in test [1], the “M4 Activity” value is “xx (activity was measured to be between 0.1 μM and 1.0 μM)”; the Emax was under 65%. Also, in test [2], the “M1 Activity” value was “xxx (activity was measured to be less than 0.1 μM)” and the Emax was 65 to 85%.
With `COC(=O)N1CC2(CCN(C3CC4CCC(C3)N4C(=O)O[C@H]3CCOC3)CC2)c2cc(F)ccc21` (some centres unmarked) [compound 96], in test [1], the “M4 Activity” value was “x (activity was measured to be greater than 1.0 μM)” and the Emax is under 65%. In addition, in test [2], the “M1 Activity” value was “xx (activity was measured to be between 0.1 μM and 1.0 μM)”; the Emax fell in the range of 65 to 85%.
Consider `COC(=O)N1CC2(CCN(C3CC4CCC(C3)N4C(=O)OC(C)C)CC2)c2cc(F)ccc21` (centres unmarked) [compound 97], for which, in test [1], the “M4 Activity” value was “x (activity was measured to be greater than 1.0 μM)” and the Emax was under 65%. Further, in test [2], the “M1 Activity” value is given as “xxx (activity was measured to be less than 0.1 μM)” and the Emax is 65 to 85%.
As for `CCCOC(=O)N1CCC(CN2CCC3(CC2)CN(C(C)=O)c2ccc(F)cc23)CC1` [compound 98], in test [1], the “M4 Activity” value was “xx (activity was measured to be between 0.1 μM and 1.0 μM)”; the Emax is under 65%. In test [2], the “M1 Activity” value is on record as “xxx (activity was measured to be less than 0.1 μM)” and the Emax was 65 to 85%.
For the compound `CCOC(=O)N1C2CCC1CC(N1CCC3(CC1)COc1ccc(Cl)cc13)C2` (centres unmarked) [compound 99], in test [1], the “M4 Activity” value is given as “x (activity was measured to be greater than 1.0 μM)” and the Emax is under 65%. Besides, in test [2], the “M1 Activity” value is recorded as “xxx (activity was measured to be less than 0.1 μM)” and the Emax was under 65%.
As to `COc1ccc(OC(=O)N2C3CCC2CC(N2CCC4(CC2)COc2ccc(F)cc24)C3)cc1` (centres unmarked) [compound 100], in test [1], the “M4 Activity” value was “xx (activity was measured to be between 0.1 μM and 1.0 μM)”; the Emax lay in the range of 65 to 85%. In test [2], the “M1 Activity” value was “xxx (activity was measured to be less than 0.1 μM)” and the Emax is 65 to 85%.
For `CC#CCOC(=O)N1CCC(N2CCC3(CC2)CN(C(C)=O)c2ccc(F)cc23)CC1` [compound 102], in test [1], the “M4 Activity” value is “xx (activity was measured to be between 0.1 μM and 1.0 μM)”; the Emax was 65 to 85%. Also, in test [2], the “M1 Activity” value was “xxx (activity was measured to be less than 0.1 μM)” and the Emax lay in the range of 65 to 85%.
On to `CCOC(=O)N1C2CCC1CC(N1CCC3(CC1)CN(S(C)(=O)=O)c1ccc(F)cc13)C2` (centres unmarked) [compound 103], for which, in test [1], the “M4 Activity” value is “xx (activity was measured to be between 0.1 μM and 1.0 μM)”; the Emax was under 65%. For the same compound, in test [2], the “M1 Activity” value was “xxx (activity was measured to be less than 0.1 μM)” and the Emax lay within 65 to 85%.
In the case of `O=C1CC2(CCN(C[C@H]3C[C@H]4C=C[C@H]3C4)CC2)c2ccccc21` [compound 104], in test [1], the “M4 Activity” value is “x (activity was measured to be greater than 1.0 μM)” and the Emax was under 65%. In test [2], the “M1 Activity” value is “xxx (activity was measured to be less than 0.1 μM)” and the Emax lay within 65 to 85%.
In the case of `CCOC(=O)N1CCC(N2CCC3(CC2)CN(C(C)=O)c2ccc(-c4ccncc4)cc23)CC1` [compound 105], in test [1], the “M4 Activity” value is listed as “x (activity was measured to be greater than 1.0 μM)” and the Emax is under 65%. Further, in test [2], the “M1 Activity” value is “xx (activity was measured to be between 0.1 μM and 1.0 μM)”; the Emax was under 65%.
In the case of `COCCOC(=O)N1C2CCC1CC(N1CCC3(CC1)CN(C(=O)OC1CCC1)c1ccc(F)cc13)C2` (centres unmarked) [compound 106], in test [1], the “M4 Activity” value was “xx (activity was measured to be between 0.1 μM and 1.0 μM)”; the Emax is under 65%. For the same compound, in test [2], the “M1 Activity” value is “xxx (activity was measured to be less than 0.1 μM)” and the Emax fell in the range of 65 to 85%.
With `CCOC(=O)N1CCC(CN2CCC3(CC2)COc2ccc(F)cc23)CC1` [compound 107], in test [1], the “M4 Activity” value is given as “x (activity was measured to be greater than 1.0 μM)” and the Emax is under 65%. Further, in test [2], the “M1 Activity” value is “xxx (activity was measured to be less than 0.1 μM)” and the Emax lay in the range of 65 to 85%.
For `CC(C)OC(=O)N1C2CCC1CC(N1CCC3(CC1)CN(C(=O)N(C)C)c1ccc(F)cc13)C2` (centres unmarked) [compound 108], in test [1], the “M4 Activity” value is “xx (activity was measured to be between 0.1 μM and 1.0 μM)”; the Emax is under 65%. In test [2], the “M1 Activity” value was “xxx (activity was measured to be less than 0.1 μM)” and the Emax is 65 to 85%.
Regarding `CCOC(=O)N1C2CCC1CC(N1CCC3(CC1)CNc1ccc(C)cc13)C2` (centres unmarked) [compound 109], in test [1], the “M4 Activity” value was “xx (activity was measured to be between 0.1 μM and 1.0 μM)”; the Emax is under 65%. Also, in test [2], the “M1 Activity” value is recorded as “xxx (activity was measured to be less than 0.1 μM)” and the Emax was in the range of 65 to 85%.
`c1ccc2c(c1)NCC21CCN(CC2CC3CCC2C3)CC1` (centres unmarked) [compound 110]: in test [1], the “M4 Activity” value is “xx (activity was measured to be between 0.1 μM and 1.0 μM)”; the Emax is under 65%. Also, in test [2], the “M1 Activity” value is “xxx (activity was measured to be less than 0.1 μM)” and the Emax is under 65%.
Turning to `Fc1ccc2c(c1)C1(CCN(C3CCC4CCC3C4)CC1)CN2` (centres unmarked) [compound 111], in test [1], the “M4 Activity” value is “xx (activity was measured to be between 0.1 μM and 1.0 μM)”; the Emax is under 65%. In test [2], the “M1 Activity” value is on record as “xxx (activity was measured to be less than 0.1 μM)” and the Emax fell in the range of 65 to 85%.
Regarding `O=C(O[C@@H]1CCOC1)N1CC2(CCN(C3CC4CCC(C3)N4C(=O)O[C@@H]3CCOC3)CC2)c2cc(F)ccc21` (some centres unmarked) [compound 112], in test [1], the “M4 Activity” value is “xx (activity was measured to be between 0.1 μM and 1.0 μM)”; the Emax is under 65%. In addition, in test [2], the “M1 Activity” value is on record as “xxx (activity was measured to be less than 0.1 μM)” and the Emax was 65 to 85%.
Turning to `CCOC(=O)N1CCC(N2CCC3(CC2)CN(C(C)=O)c2ccc(F)cc23)C1` (centres unmarked) [compound 113], in test [1], the “M4 Activity” value is given as “x (activity was measured to be greater than 1.0 μM)” and the Emax was under 65%. For the same compound, in test [2], the “M1 Activity” value is “xxx (activity was measured to be less than 0.1 μM)” and the Emax was in the range of 65 to 85%.
For the compound `CCCOC(=O)N1CC2(CCN(C3CCN(C(=O)OCC)CC3)CC2)c2cc(F)ccc21` [compound 114], in test [1], the “M4 Activity” value was “x (activity was measured to be greater than 1.0 μM)” and the Emax was under 65%. In addition, in test [2], the “M1 Activity” value is “xx (activity was measured to be between 0.1 μM and 1.0 μM)”; the Emax lay within 65 to 85%.
With `CCCOC(=O)N1C2CCC1CC(N1CCC3(CC1)CN(C(=O)O[C@@H]1CCOC1)c1ccc(F)cc13)C2` (some centres unmarked) [compound 115], in test [1], the “M4 Activity” value is “xx (activity was measured to be between 0.1 μM and 1.0 μM)”; the Emax is under 65%. For the same compound, in test [2], the “M1 Activity” value is on record as “xxx (activity was measured to be less than 0.1 μM)” and the Emax fell in the range of 65 to 85%.
In the case of `Cc1ccc2c(c1)C1(CCN(C3CC4CCC3C4)CC1)CN2C(=O)OC(C)(C)C` (centres unmarked) [compound 116], in test [1], the “M4 Activity” value is “xx (activity was measured to be between 0.1 μM and 1.0 μM)”; the Emax was under 65%. Moreover, in test [2], the “M1 Activity” value was “xxx (activity was measured to be less than 0.1 μM)” and the Emax was in the range of 65 to 85%.
Consider `COCCOC(=O)N1CC2(CCN(C3CC4CCC(C3)N4C(=O)OCCOC)CC2)c2cc(F)ccc21` (centres unmarked) [compound 117], for which, in test [1], the “M4 Activity” value is “xx (activity was measured to be between 0.1 μM and 1.0 μM)”; the Emax is under 65%. Further, in test [2], the “M1 Activity” value is reported as “xxx (activity was measured to be less than 0.1 μM)” and the Emax is 65 to 85%.
Consider `CC(=O)N1CC2(CCN(CC3CC4CCC3C4)CC2)c2cc(C)ccc21` (centres unmarked) [compound 118], for which, in test [1], the “M4 Activity” value is recorded as “x (activity was measured to be greater than 1.0 μM)” and the Emax is under 65%. Besides, in test [2], the “M1 Activity” value is “xxx (activity was measured to be less than 0.1 μM)” and the Emax fell in the range of 65 to 85%.
